Measurements reported in US11033604B2, “Reagents and methods for treating bacterial infection” (priority 2018, dated 2021).
Positions of bridges follow the written chain, without caps; N, C: chain ends. Non-standard residues stand in square brackets, D forms with d. No end group written: not given here.

Experiments:
E. coli UTI89 = test: Bacterial growth and biofilm versus planktonic proportion; assay type: cell-based; settings: UTI89 biofilm cultures
Description: FIG. 12. […] Error bars indicate standard deviation of the mean of at least three replicates. Significance values are p<0.05: *, p<0.01: **, p<0.001: ***.
UTI89 biofilms were also cultivated in the presence of an unstructured peptide, P1, which retains a mixture of L- and D-amino acids but lacks the α-sheet secondary structure of AP193.

CsgA = CsgA (Escherichia coli, UniProt P28307); settings: dimeric AP193, 14:1 molar ratio (CsgA:AP193), 150 h, 25° C.
Description: A) CsgA aggregation monitored by ThT fluorescence. […] Error bars represent one standard deviation from the mean of three replicates.
For inhibition assays with CsgA, purified, recombinant CsgA was desalted from a stock solution containing 8 M Gnd HCl into 50 mM potassium phosphate buffer (KPi, pH 6.2) and diluted to a final concentration of 0.2 mg/m L. Samples were aliquoted into 96 well plates and incubated quiescently at 25° C. Plates were removed for periodic measurements in a plate reader, where the fluorescence of Thioflavin T (ThT) was used to monitor protein fibril formation in real time. ThT fluoresces upon binding p-sheet structure and serves as a proxy for amyloid fibril content.
In some samples, the dimeric α-sheet peptide AP193 was also added to the mixture at a molar ratio of 14:1 (CsgA:AP193). After 150 h incubation, the extent of amyloid formation in the two samples was measured by ThT fluorescence (FIG. 11C).

[1] = system: Pseudomonas aeruginosa (PA); test: Crystal violet biofilm assay; assay type: cell-based
Description: Furthermore, these same inhibitors are active against EC, SE, and SM.

[2] = system: S. aureus SH1000 WT biofilms; test: ThT fluorescence assay of amyloid formation in S. aureus SH1000 WT biofilm cultures; assay type: cell-based, Staphylococcus aureus; settings: 24 h, 37° C., peptide 80 μM unless otherwise noted, vs peptide-free control
Description: We developed a novel protocol to identify amyloid fibril formation during biofilm development in two S. aureus strains—SH1000 WT, a rsbU^+ laboratory strain^27, and MN8, a clinical strain isolated from the human urogenital tract (Table 1). After 24 hours of batch growth in microtiter plates, biofilms were washed and incubated with Thioflavin T (ThT), and the resulting fluorescence signals served as a proxy for the extent of PSM fibril formation in the EM (FIG. 1A). Next, we utilized this assay to test α-sheet amyloid inhibitor designs and control peptides (sequences provided in Table 2) in batch biofilm cultures. The first inhibitor used is AP90 (Alternating Peptide #90, referred to as α1 previously^25,26). […]
Overnight cultures of S. aureus (see Table 1 for a list of strains used in this study) were spun down and re-suspended in fresh Luria-Bertani (LB) media to an optical density of 0.1 (600 nm). […] The detached biofilm suspensions were transferred to a 96-well black-walled plate (Corning, TC-treated polystyrene) and ThT fluorescence was read at 438/495 nm on a Perkin-Elmer Enspire™ plate reader. Fluorescence measurements were corrected by subtracting the background intensity of identical samples without ThT. […] After 15 minutes of incubation at room temperature, fluorescence ratios of the two dyes were determined using a Perkin-Elmer Enspire™ plate reader.

[3] = system: S. aureus MN8+mCherry biofilms; test: Fluorescence microscopy of biofilm adhesion to glass; assay type: cell-based, Staphylococcus aureus; settings: 80 μM, 24 h, 37° C.
Description: FIG. 2. S. aureus biofilm structures become less robust when grown in the presence of designed peptide inhibitors. (A) S. aureus MN8+mCherry™ biofilms were grown on glass substrates for 24 hours and then cells were washed and fixed. Addition of peptide inhibitors (80 μM) reduced adhesion to the slide, causing cells to detach during the wash step. Images are representative of duplicate wells. (B) In S. aureus SH1000 WT biofilms grown in regular LB medium, PSM amyloid fibrils are visible as deposits in spaces between cells (left). Upon addition of the designed peptide AP90 (80 μM), no extracellular fibril deposits were observed (right).
To further investigate the ability of designed peptides to inhibit PSM amyloid formation, fluorescent (mCherry™ ) MN8 biofilms were grown in culture plates with glass bottom wells. After 24 hours at 37° C. the biofilms were gently rinsed with pipetted saline to remove unattached biomass and the remaining attached cells were fixed and imaged. […] These qualitative results are in good agreement with the quantitative results obtained for amyloid inhibition in FIG. 1B. Addition of anti-α-sheet peptides triggered a significant reduction in PSM amyloid formation as measured by ThT fluorescence and also served to weaken the S. aureus biofilms by reducing the PSM amyloid fibril content of the extracellular matrix. […]

CsgA, sequence (P28307 21-151): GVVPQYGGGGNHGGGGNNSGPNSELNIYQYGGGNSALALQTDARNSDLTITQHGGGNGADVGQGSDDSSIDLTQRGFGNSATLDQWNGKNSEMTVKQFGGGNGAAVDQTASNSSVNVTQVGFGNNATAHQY

RGEmNyFwMNEYYGWtMnCkMGR (RGE[dM]N[dY]F[dW]MNEYYGW[dT]M[dN]C[dK]MGR) [AP193]
Bacterial killing / growth inhibition (E. coli UTI89): does not kill bacteria or inhibit their growth | CsgA fibril formation (endpoint ThT fluorescence) (CsgA): significantly reduced

RGEmNlSwMNEYSGWtMnLkMGR (RGEMNLSWMNEYSGWTMNLKMGR; not fully specified (residues 4, 6, 8, 16, 18, 20); printed as RGEmNlSwMNEYSGWtMnLkMGR) [AP90]
Biofilm inhibition (crystal violet, FIG. 10) [1]: inhibition

RGEmNlCwMNEYSGWcMnLkMGR (RGE[dM]N[dL]C[dW]MNEYSGW[dC]M[dN]L[dK]MGR; disulfide 7-16 (inferred)) [AP407, variant of AP90 with a disulfide bond]
Reduction of amyloid fibril formation (ThT fluorescence) [2]: 56% | Biofilm attachment to glass after rinsing [3]: caused nearly all of the biofilm to detach
